Results reported in BindingDB's records for doi:10.1016/S0960-894X(01)80770-8 (1993).
Counter-ions that a name gives are not always drawn.

Assays:
[1] = molecular target: S-adenosylmethionine decarboxylase proenzyme (Escherichia coli) (UniProt P0A7F6); assay: Compound was evaluated for its inhibitory activity against AdoMet-DC from Escherichia coli
[2] = Compound was evaluated to inactivate the bacterial AdoMet-DC

Sequence of S-adenosylmethionine decarboxylase proenzyme (Escherichia coli) (P0A7F6 whole entry, looked up): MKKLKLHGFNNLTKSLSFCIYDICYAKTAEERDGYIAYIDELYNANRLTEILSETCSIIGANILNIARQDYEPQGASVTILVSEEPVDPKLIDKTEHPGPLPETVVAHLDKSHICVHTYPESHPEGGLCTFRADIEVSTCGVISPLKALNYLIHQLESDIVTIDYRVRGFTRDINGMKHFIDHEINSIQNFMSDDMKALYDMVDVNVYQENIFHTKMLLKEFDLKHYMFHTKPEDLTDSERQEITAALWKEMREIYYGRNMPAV

Row | IC50 [1] [µM] | Ki [2] [µM] | SMILES
1 | 50 |  | C[S+](CCCC(N)C#N)C[C@H]1O[C@@H](n2cnc3c(N)ncnc32)[C@H](O)[C@@H]1O (stereo partly drawn) [2-amino-5-({[(2S,3S,4R)-5-(6-amino-9H-purin-9-yl)-3,4-dihydroxyoxolan-2-yl]methyl}(methyl)-sulfanyl)pentanenitrile dihydrobromide]
2 | 205 |  | N#CC(N)CCCSC[C@H]1O[C@@H](n2cnc3c(N)ncnc32)[C@H](O)[C@@H]1O (stereo not given in full)
3 | 9 | 31.1 | C[S+](CCC(N)C#N)C[C@H]1O[C@@H](n2cnc3c(N)ncnc32)[C@H](O)[C@@H]1O (stereo partly drawn) [2-amino-4-({[(2S,3S,4R)-5-(6-amino-9H-purin-9-yl)-3,4-dihydroxyoxolan-2-yl]methyl}(methyl)-sulfanyl)butanenitrile dihydrobromide]
4 | 179 |  | N#CC(N)CCSC[C@H]1O[C@@H](n2cnc3c(N)ncnc32)[C@H](O)[C@@H]1O (stereo not given in full)
